Reference: patent publication US20120184624A1, “Treatment of Alzheimer's Disease” (priority 2010, published 2012)
Like-named read-outs stand apart in the source and are kept apart here.

How the values were obtained:
tau = format: cell-based, mouse; conditions: for de-phosphorylation of tau at PP2A sensitive sites: increasing concentration of phenformin over 16 h or 1 h
Protocol: (§1) Primary cortical neurons were isolated from brain of wt or transgenic (Mapt^tm1(EGFP)klt Tg(MAPT)8cPdav/J; Jackson Laboratory) embryos at day 14.5. Cortices were collected in DMEM (Lonza) and cells were dissociated by incubation with Trypsin/EDTA for 6.5 min at 37° C. Cells were then diluted in neurobasal medium (Gibco-BRL) containing B27 supplement (Gibco BRL). Cells were plated at a density of 4.0×10^5 onto 0.2 mg/ml poly-D-lysin (Sigma) and 2 μg/ml Laminin (Sigma) coated 12 well plates. Neurons were incubated at 37° C. with 8% CO2. One hour after seeding a complete change of medium was performed. Later on, each 96 hours half volumes of the medium were replaced by fresh medium. After 7 days in culture neurons were treated.
(§2) Cells were incubated with the respective substances as follows: Metformin (Sigma) at final concentrations up to 2.5 mM for 1 to >24 hours, okadaic acid (Sigma) at final concentrations from 1 nM to 10 nM for 4 h, Fostricien (Sigma) at final concentration of 1 μM for 4 h and AICAR (cell signalling) at final concentration of 5 mM for 0.5-16 h. For cell treatment without insulin, medium containing B27+insulin supplement was replaced with medium containing B27-supplement without insulin 24 h before treatment. 3 groups of 2 mice were treated with or without 5 mg/l metformin in the drinking water.
(§3) Cell pellets were homogenized in Magic-Mix (48% UREA, 15 mM Tris-HCL pH 7.5, 8.7% Glycerin, 1% SDS, 0.004% Bromphenolblue, 143 mM Mercaptoethanol), sonicated and boiled for 5 min at 95° C. Proteins were resolved on 8 or 10% SDS gels and blotted onto PVDF-membranes (Roche). Antibodies used in this study were purchased from the following companies: Tau-5 (Biosource), anti-human PHF pSer202 (Thermo scientific), Tau pSer356 (Biosource), Tau pSer262 (Biosource), Tau pSer396 (Sigma), Actin (Sigma), ACC (cell signalling), ACC pSer79 (cell signalling), phospho-S6 ribosomal protein pSer241/244 (cell signalling), p70S6 Kinase (cell signalling), p70S6K pThr421/pSer424 (cell signalling), mTOR (cell signalling), AMPK (cell signallling, AMPK pThr172 (cell singnaling), HRP-anti-rabbit (Amersham), HRP-anti-mouse (Dianova). The resulting bands were quantified using Imagequant5.2. Statistical analyses were performed using SigmaStat software package (v 3.0, SPSS, USA). For timecourse or dose-response studies, data were analyses by one-way ANOVA with post hoc Dunnett's or Bonferonni test to accommodate for multiple comparisons. A Student's t-test was used for two-group comparisons, as appropriate.

ACC = test: Phosphorylation of the AMPK target ACC (Ser79) in primary cortical neurons; format: cell-based, mouse; conditions: increasing time intervals
Protocol: as §1
Cells were incubated with the respective substances as follows: Metformin (Sigma) at final concentrations up to 2.5 mM for 1 to >24 hours, okadaic acid (Sigma) at final concentrations from 1 nM to 10 nM for 4 h, Fostricien (Sigma) at final concentration of 1 μM for 4 h and AICAR (cell signalling) at final concentration of 5 mM for 0.5-16 h. For cell treatment without insulin, medium containing B27+insulin supplement was replaced with medium containing B27-supplement without insulin 24 h before treatment. […]
as §3, with “Proteins were resolved on 8 or 10% SDS gels and blotted onto PVDF-membranes (Roche).” left out, “Statistical analyses were performed using SigmaStat software package (v 3.0, SPSS, USA). For timecourse or dose-response studies, data were analyses by one-way ANOVA with post hoc Dunnett's or Bonferonni test to accommodate for multiple comparisons. A Student's t-test was used for two-group comparisons, as appropriate.” left out

[1] = molecular target: T1, purified PP2Ac (catalytic subunit of PP2A) (Homo sapiens, UniProt P67775); test: PP2A activity assay (malachite green), purified PP2Ac; format: biochemical; conditions: 10 nM okadaic acid, 1 hour
T1 construct: purchased upstate
T1 sequence (P67775 whole entry): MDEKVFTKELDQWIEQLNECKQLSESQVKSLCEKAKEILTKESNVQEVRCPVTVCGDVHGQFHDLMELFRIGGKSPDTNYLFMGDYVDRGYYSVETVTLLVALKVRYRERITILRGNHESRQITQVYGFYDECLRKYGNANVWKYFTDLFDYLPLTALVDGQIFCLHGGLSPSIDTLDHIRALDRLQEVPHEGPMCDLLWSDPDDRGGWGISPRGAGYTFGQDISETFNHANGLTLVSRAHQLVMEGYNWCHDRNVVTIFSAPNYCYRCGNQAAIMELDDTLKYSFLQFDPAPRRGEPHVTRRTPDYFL
Protocol: (§4) Either purified PP2Ac (upstate), cell lysates or PP2A-holoenzymes, which were purified by immunoprecipitation using a PP2A-A-subunit antibody (Millipore), were incubated with or without 10 mM metformin or 10 nM okadaic acid for 1 hour. Afterwards PP2A phosphatase activity was determined using a malachite green assay kit (upstate) following the manufacturer's instructions.

PP2A-holoenzymes = test: PP2A activity assay (malachite green), PP2A-holoenzymes immunopurified from HeLa cell lysates; format: biochemical; conditions: 10 nM okadaic acid, 1 hour
Protocol: as §4

p70S6kinase = test: Phosphorylation of p70S6kinase in primary cortical neurons; format: cell-based, mouse; conditions: 0.25 mM phenformin over increasing time intervals
Protocol: as §1, §2, §3

[2] = increasing concentrations of okadaic acid (1 nM to 10 nM), four hours

NC(=O)c1ncn([C@@H]2O[C@H](CO)[C@@H](O)[C@H]2O)c1N [AICAR]
phosphorylation pattern of tau (PP2A sensitive site) (tau; 5 mM AICAR, first 16 hours of treatment): did not find a significant effect | phosphorylation of tau (Ser202) (tau; AICAR, first 8 hours of treatment): did not see an effect | ACC phosphorylation (Ser79) (ACC; 5 mM AICAR): significantly increased

C[C@@](O)(/C=C/[C@H]1CC=CC(=O)O1)[C@@H](C[C@@H](O)\C=C/C=C\C=C\CO)OP(=O)(O)O [fostriecin]
phosphorylation at Ser202 (tau; 1 μM fostriecin alone over 4 hours): increased

C=C1[C@@H](O)[C@@H]2O[C@]3(CC[C@H](/C=C/[C@@H](C)[C@@H]4CC(C)=C[C@@]5(O[C@H](C[C@@](C)(O)C(=O)O)CC[C@H]5O)O4)O3)CC[C@H]2O[C@@H]1[C@@H](O)C[C@H](C)[C@H]1O[C@@]2(CCCCO2)CC[C@H]1C [okadaic acid]
PP2A activity of purified PP2Ac [1]: reduced | phosphorylation of Ser202 (tau; 10 nM okadaic acid alone, 4 hours): increased | phosphorylation of Ser202 relative to total tau (tau; [2]): increased with the concentration of OA | phosphorylation of Ser262 relative to total tau (tau; [2]): increased with the concentration of OA | phosphorylation of Ser356 relative to total tau (tau; [2]): increased with the concentration of OA | phosphorylation of Ser396 relative to total tau (tau; [2]): did not increase significantly | activity of the immunopurified PP2A protein complex (PP2A-holoenzymes): reduced

[H]/N=C(/N)N/C(=N/[H])NCCc1ccccc1 [phenformin, Phenformin]
phosphorylation status of p70S6kinase (p70S6kinase): promoted de-phosphorylation | phosphorylation status of p70S6kinase (p70S6kinase; listed as Phenformin): decrease of pS6kinase phosphorylation | de-phosphorylation of tau at PP2A sensitive sites (tau): Comparable results | de-phosphorylation of tau at PP2A sensitive sites (tau; listed as Phenformin): induces de-phosphorylation | effect on Ser202 phosphorylation with and without okadaic acid pre-treatment (tau; okadaic acid 10 nM prior to phenformin 0.25 mM, 4 hours): inhibition of PP2A blocks the Phenformin effect | ACC phosphorylation (Ser79) (ACC; 0.25 mM phenformin): neither metformin (FIG. 4a) nor phenformin (FIG. 12) had an effect
